Results: the supplement of paper PMC8617591

Legend:
[1] = tested on: Mycobacterium tuberculosis Erdman (autoluminescent); experiment: total FIC50 (Loewe) at 50% inhibition, three-drug combination (log2); higher = more antagonistic
Description: (§1)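 DiaMOND equipotent three-drug combination dose responses (10 doses, 1.5- or 2-fold spacing, centred on IC90) against autoluminescent M. tuberculosis Erdman in 8 in vitro models. Read-out is OD600, or luminescence for the intracellular and dormancy models, normalised to untreated wells. Hill-fit Einf, AUC25 and GRinf are potency metrics; FIC50 and FIC90 are total Loewe fractional inhibitory concentrations as log2 (negative = synergy).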

[2] = tested on: Mycobacterium tuberculosis Erdman (autoluminescent); experiment: total FIC90 (Loewe) at 90% inhibition, three-drug combination (log2); higher = more antagonistic
Description: as §1

[3] = tested on: Mycobacterium tuberculosis Erdman (autoluminescent); experiment: Einf, fitted maximum growth inhibition of three-drug combination (fraction); higher = stronger maximal inhibition
Description: as §1

[4] = tested on: Mycobacterium tuberculosis Erdman (autoluminescent); experiment: AUC25, normalised area under dose response up to IC25 (three-drug combination) (fraction (0-1)); higher = more potent at low dose
Description: as §1

[5] = tested on: Mycobacterium tuberculosis Erdman (autoluminescent); experiment: GRinf, maximum normalised growth rate inhibition (three-drug combination) (unitless (-1 to 1)); higher = less effect (negative = killing)
Description: as §1

CC(C)/N=c1\cc2n(-c3ccc(Cl)cc3)c3ccccc3nc-2cc1Nc1ccc(Cl)cc1 [clofazimine] + NC(=O)c1cnccn1 [pyrazinamide] + CO[C@H]1/C=C/O[C@@]2(C)Oc3c(C)c(O)c4c(O)c(c(/C=N/N5CCN(C)CC5)c(O)c4c3C2=O)NC(=O)/C(C)=C\C=C\[C@H](C)[C@H](O)[C@@H](C)[C@@H](O)[C@@H](C)[C@H](OC(C)=O)[C@@H]1C [rifampicin]
Settings	AUC25, [4]	Einf, [3]	GRinf, [5]	total FIC50, [1]	total FIC90, [2]
in vitro model: acidic pH 5.7, time point: constant (~7 days, model-specific)	0.0832	0.905	-0.142	-0.249	–
in vitro model: acidic pH 5.7, time point: terminal (~4-5 doublings, model-specific)	0.0739	0.988	-0.217	-0.174	-0.451
in vitro model: intracellular J774, time point: constant = terminal	–	0.995	-0.387	–	-0.136

Settings	AUC25, [4]	Einf, [3]	GRinf, [5]	total FIC50, [1]	total FIC90, [2]
in vitro model: butyrate, time point: constant (~7 days, model-specific)	0.115	0.918	-0.091	0.234	0.505
in vitro model: butyrate, time point: terminal (~4-5 doublings, model-specific)	0.0935	0.967	-0.0615	0.0552	0.0714
in vitro model: cholesterol 0.05 mM, time point: constant (~7 days, model-specific)	0.122	0.657	-0.00769	–	–
in vitro model: cholesterol 0.05 mM, time point: terminal (~4-5 doublings, model-specific)	0.106	0.894	-0.15	1.2	–
in vitro model: cholesterol-high 0.2 mM, time point: constant (~7 days, model-specific)	0.113	0.864	-0.605	1.06	–
in vitro model: cholesterol-high 0.2 mM, time point: terminal (~4-5 doublings, model-specific)	0.107	1	-0.764	1.43	1.53
in vitro model: dormancy (butyrate + nitrate, low O2), time point: constant (~7 days, model-specific)	0.0887	0.949	0.12	-0.433	-1.62
in vitro model: dormancy (butyrate + nitrate, low O2), time point: terminal (~4-5 doublings, model-specific)	0.0801	0.994	-0.455	-0.413	0.318
in vitro model: standard 7H9 glycerol, time point: constant = terminal	0.114	0.935	0.0256	-0.361	–
in vitro model: valerate, time point: constant (~7 days, model-specific)	0.106	0.813	0.205	0.653	–
in vitro model: valerate, time point: terminal (~4-5 doublings, model-specific)	0.0497	0.896	0.165	0.53	1.88

CC(C)/N=c1\cc2n(-c3ccc(Cl)cc3)c3ccccc3nc-2cc1Nc1ccc(Cl)cc1 [clofazimine] + NNC(=O)c1ccncc1 [isoniazid] + CC(=O)NC[C@H]1CN(c2ccc(N3CCOCC3)c(F)c2)C(=O)O1 [linezolid]
Settings	AUC25, [4]	Einf, [3]	GRinf, [5]	total FIC50, [1]	total FIC90, [2]
in vitro model: acidic pH 5.7, time point: constant (~7 days, model-specific)	0.0908	0.806	-0.134	0.331	–
in vitro model: acidic pH 5.7, time point: terminal (~4-5 doublings, model-specific)	0.0672	0.939	-0.192	0.773	-0.102
in vitro model: intracellular J774, time point: constant = terminal	–	0.833	0.168	–	0.492

Settings	AUC25, [4]	Einf, [3]	GRinf, [5]	total FIC50, [1]	total FIC90, [2]
in vitro model: butyrate, time point: constant (~7 days, model-specific)	0.113	0.954	-0.181	0.73	1.87
in vitro model: butyrate, time point: terminal (~4-5 doublings, model-specific)	0.0763	0.977	-0.106	0.921	1.01
in vitro model: cholesterol 0.05 mM, time point: constant (~7 days, model-specific)	0.133	0.689	-0.0122	-0.374	–
in vitro model: cholesterol 0.05 mM, time point: terminal (~4-5 doublings, model-specific)	0.141	0.902	-0.198	4.56	0.951
in vitro model: cholesterol-high 0.2 mM, time point: constant (~7 days, model-specific)	0.124	0.934	-0.48	0.36	1.56
in vitro model: cholesterol-high 0.2 mM, time point: terminal (~4-5 doublings, model-specific)	0.109	1	-0.827	0.186	0.424
in vitro model: dormancy (butyrate + nitrate, low O2), time point: constant (~7 days, model-specific)	0.0763	0.914	0.0823	1.56	1.18
in vitro model: dormancy (butyrate + nitrate, low O2), time point: terminal (~4-5 doublings, model-specific)	0.0355	0.972	-0.074	1.16	0.734
in vitro model: standard 7H9 glycerol, time point: constant = terminal	0.126	0.959	-0.237	0.207	0.757
in vitro model: valerate, time point: constant (~7 days, model-specific)	0.128	0.885	-0.0388	0.318	–
in vitro model: valerate, time point: terminal (~4-5 doublings, model-specific)	0.0875	0.934	0.0843	0.0839	1.21
